For the experiment, the target named is T1, KRAS G12C 1-169, his-tagged protein, GDP-loaded (Homo sapiens, UniProt P01116, G12C).
T1 construct: KRAS G12C 1-169, his-tagged protein, GDP-loaded
T1 sequence (P01116 1-169 isoform P01116-2 G12C): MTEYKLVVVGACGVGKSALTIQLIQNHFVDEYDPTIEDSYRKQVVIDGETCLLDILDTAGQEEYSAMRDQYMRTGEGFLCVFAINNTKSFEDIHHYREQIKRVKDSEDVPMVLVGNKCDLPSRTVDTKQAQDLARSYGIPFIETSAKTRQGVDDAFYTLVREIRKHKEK
Description: Biochemical assay: covalent binding to KRAS G12C analyzed by mass spectrometry. Also: test concentration or dose not given here. The note with it: compounds 48-246, measured at 2 h.
Turning to `C=CC(=O)N1CCN(c2ncnc3cc(-c4ccc5oc(N)nc5c4)c(Cl)cc23)CC1` [Compound I-164, 1-(4-(7-(2-aminobenzo[d]oxazol-5-yl)-6-chloroquinazolin-4-yl)piperazin-1-yl)prop-2-en-1-one], the Binding % result is “+ (+indicates binding activity from 5% to 25%)”.

For the compound `C=CC(=O)N1CCN(c2ncnc3cc(-c4ccccc4C(F)(F)F)sc23)CC1` [Compound I-166, 1-(4-(6-(2-(trifluoromethyl)phenyl)thieno[3,2-d]pyrimidin-4-yl)piperazin-1-yl)prop-2-en-1-one], the Binding % result is listed as “+ (+indicates binding activity from 5% to 25%)”.

Take `C=CC(=O)N1CCN(c2ncnc3cc(-c4cccc5[nH]ncc45)c(Cl)cc23)CC1` [Compound I-167, 1-(4-(6-chloro-7-(1H-indazol-4-yl)quinazolin-4-yl)piperazin-1-yl)prop-2-en-1-one]: the Binding % entry is reported as “+ (+indicates binding activity from 5% to 25%)”.

With `C=CC(=O)N1CCN(c2ncnc3cc(-c4ccccc4CC#N)c(Cl)cc23)CC1` [Compound I-168, 2-(2-(4-(4-acryloylpiperazin-1-yl)-6-chloroquinazolin-7-yl)phenyl)acetonitrile], the Binding % entry was “++ (++indicates binding activity greater than 25% and up to 50%)”.

As for `C=CC(=O)N1CCN(c2ncnc3cc(-c4ccc(O)cc4C(F)(F)F)c(Cl)cc23)CC1` [Compound I-169, 1-(4-(6-chloro-7-(4-hydroxy-2-(trifluoromethyl)phenyl)quinazolin-4-yl)piperazin-1-yl)prop-2-en-1-one], the Binding % result was “+++ (+++indicates binding activity greater than 50% and up to 75%)”.

Take `C=CC(=O)N1CCN(c2ncnc3cc(-c4ccc[nH]c4=O)c(Cl)cc23)CC1` [Compound I-170, 3-(4-(4-acryloylpiperazin-1-yl)-6-chloroquinazolin-7-yl)pyridin-2(1H)-one]: the Binding % entry was “+ (+indicates binding activity from 5% to 25%)”.

Consider `C=CC(=O)N1CCN(c2c(C#N)cnc3cc(-c4cccc5ccccc45)c(Cl)cc23)CC1` [Compound I-171, 4-(4-acryloylpiperazin-1-yl)-6-chloro-7-(naphthalen-1-yl)quinolin-3-carbonitrile], for which the Binding % entry was “+++ (+++indicates binding activity greater than 50% and up to 75%)”.

Take `C=CC(=O)N1CCN(c2c(C#N)cnc3cc(-c4ccc(F)cc4F)c(Cl)cc23)CC1` [Compound I-172, 4-(4-acryloylpiperazin-1-yl)-6-chloro-7-(2,4-difluorophenyl)quinolin-3-carbonitrile]: the Binding % result was “+++ (+++indicates binding activity greater than 50% and up to 75%)”.

With `C=CC(=O)N1CCN(c2c(C#N)cnc3cc(-c4ccccc4C(F)(F)F)c(Cl)cc23)CC1` [Compound I-173, 4-(4-acryloylpiperazin-1-yl)-6-chloro-7-(2-(trifluoromethyl)phenyl) quinoline-3-carbonitrile], the Binding % result is reported as “++++ (++++indicates binding activity greater than 75%)”.

On to `C=CC(=O)N1CCN(c2ncnc3cc(-c4cc(NC(C)=O)ccc4F)c(Cl)cc23)CC1` [Compound I-174, N-(3-(4-(4-acryloylpiperazin-1-yl)-6-chloroquinazolin-7-yl)-4-fluorophenyl)acetamide], for which the Binding % entry is “++ (++indicates binding activity greater than 25% and up to 50%)”.

Take `C=CC(=O)N1CCN(c2ncnc3cc(-c4ccccc4C4(C#N)CC4)c(Cl)cc23)CC1` [Compound I-175, 1-(2-(4-(4-acryloylpiperazin-1-yl)-6-chloroquinazolin-7-yl)phenyl)cyclopropanecarbonitrile]: the Binding % result was “+++ (+++indicates binding activity greater than 50% and up to 75%)”.

With `C=CC(=O)N1CCN(c2ncnc3cc(-c4ccccc4C4(C(N)=O)CC4)c(Cl)cc23)CC1` [Compound I-176, 1-(2-(4-(4-acryloylpiperazin-1-yl)-6-chloroquinazolin-7-yl)phenyl)cyclopropanecarboxamide], the Binding % result is “+++ (+++indicates binding activity greater than 50% and up to 75%)”.
